Source: patent publication EP0584797A2, “Novel cephalosporin compounds and processes for the preparation thereof” (LUCKY LTD., priority 1992, dated 1994)
In brackets after ≈: the same amount, converted by molar mass.

What was measured:
Test in all cases: minimal inhibitory concentration, two-fold agar dilution
Assay type in all cases: cell-based
[1] = test system: Pseudomonas aeruginosa ATCC 25619; details: ATCC25619, Muller-Hinton agar, 37°C, 20 hours, read-out: MIC values against the standard strains
Method: (§1) These MIC values were taken by employing a two-fold dilution method: that is, two-fold serial dilutions of each of the test compounds were made and dispersed in a Muller-Hinton agar medium; 2µl of the standard test strain which had the 10⁷ CFU(Colony Forming Unit) per ml was inoculated on the medium; and these were incubated at 37°C for 20 hours.

[2] = test system: Staphylococcus aureus ATCC 6538p; details: ATCC6538P, Muller-Hinton agar, 37°C, 20 hours, read-out: MIC values against the standard strains
Method: as §1

[3] = test system: Escherichia coli ATCC 10536; details: ATCC10536, Muller-Hinton agar, 37°C, 20 hours, read-out: MIC values against the standard strains
Method: as §1

[4] = test system: Bacillus megaterium ATCC 9885; details: Priestia megaterium, ATCC9885; Muller-Hinton agar; 37°C; 20 hours; read-out: MIC values against the standard strains
Method: as §1

[5] = test system: Escherichia coli ATCC 25922; details: ATCC25922, Muller-Hinton agar, 37°C, 20 hours, read-out: MIC values against the standard strains
Method: as §1

[6] = test system: Micrococcus luteus ATCC 9341; details: ATCC9341, Muller-Hinton agar, 37°C, 20 hours, read-out: MIC values against the standard strains
Method: as §1

[7] = test system: Serratia marcescens ATCC 27117; details: ATCC27117, Muller-Hinton agar, 37°C, 20 hours, read-out: MIC values against the standard strains
Method: as §1

[8] = test system: Proteus mirabilis ATCC 25933; details: ATCC25933, Muller-Hinton agar, 37°C, 20 hours, read-out: MIC values against the standard strains
Method: as §1

[9] = test system: Shigella flexneri ATCC 11836; details: ATCC11836, Muller-Hinton agar, 37°C, 20 hours, read-out: MIC values against the standard strains
Method: as §1

[10] = test system: Klebsiella pneumoniae ATCC 10031; details: ATCC10031, Muller-Hinton agar, 37°C, 20 hours, read-out: MIC values against the standard strains
Method: as §1

[11] = test system: Staphylococcus epidermidis ATCC 12228; details: ATCC12228, Muller-Hinton agar, 37°C, 20 hours, read-out: MIC values against the standard strains
Method: as §1

[12] = test system: Enterobacter cloacae ATCC 27508; details: ATCC27508, Muller-Hinton agar, 37°C, 20 hours, read-out: MIC values against the standard strains
Method: as §1

[13] = test system: Providencia rettgeri ATCC 9250; details: ATCC9250, Muller-Hinton agar, 37°C, 20 hours, read-out: MIC values against the standard strains
Method: as §1

[14] = test system: Staphylococcus aureus ATCC 10537; details: ATCC10537, Muller-Hinton agar, 37°C, 20 hours, read-out: MIC values against the standard strains
Method: as §1

[15] = test system: Morganella morganii ATCC 8076h; details: ATCC8076H, Muller-Hinton agar, 37°C, 20 hours, read-out: MIC values against the standard strains
Method: as §1

[16] = test system: Proteus vulgaris ATCC 6059; details: ATCC6059, Muller-Hinton agar, 37°C, 20 hours, read-out: MIC values against the standard strains
Method: as §1

[17] = test system: Streptococcus faecalis ATCC 29212; details: Enterococcus faecalis, ATCC29212; Muller-Hinton agar; 37°C; 20 hours; read-out: MIC values against the standard strains
Method: as §1

[18] = test system: Salmonella typhimurium ATCC 14028; details: Salmonella enterica; Muller-Hinton agar; 37°C; 20 hours; read-out: MIC values against the standard strains
Method: as §1

[19] = test system: Pseudomonas aeruginosa ATCC 10145; details: ATCC10145, Muller-Hinton agar, 37°C, 20 hours, read-out: MIC values against the standard strains
Method: as §1

[20] = test system: Bacillus cereus ATCC 11778; details: ATCC11778, Muller-Hinton agar, 37°C, 20 hours, read-out: MIC values against the standard strains
Method: as §1

[21] = test system: Shigella sonnei ATCC 11060; details: ATCC11060, Muller-Hinton agar, 37°C, 20 hours, read-out: MIC values against the standard strains
Method: as §1

[22] = test system: Acinetobacter calcoaceticus ATCC 15473; details: ATCC15473, Muller-Hinton agar, 37°C, 20 hours, read-out: MIC values against the standard strains
Method: as §1

[23] = test system: Citrobacter freundii ATCC 8090; details: ATCC8090, Muller-Hinton agar, 37°C, 20 hours, read-out: MIC values against the standard strains
Method: as §1

[24] = test system: Pseudomonas aeruginosa ATCC 27853; details: ATCC27853, Muller-Hinton agar, 37°C, 20 hours, read-out: MIC values against the standard strains
Method: as §1

[25] = test system: Enterobacter aerogenes ATCC 29751; details: Klebsiella aerogenes, ATCC29751; Muller-Hinton agar; 37°C; 20 hours; read-out: MIC values against the standard strains
Method: as §1

SMILES | MIC [1] | MIC [2] | MIC [3] | MIC [4] | MIC [5] | MIC [6] | MIC [7] | MIC [8] | MIC [9] | MIC [10] | MIC [11] | MIC [12] | MIC [13] | MIC [14] | MIC [15] | MIC [16] | MIC [17] | MIC [18] | MIC [19] | MIC [20] | further results
CN(C)c1cc(N)nc(SCC2=C(C(=O)[O-])N3C(=O)[C@@H](NC(=O)/C(=N\OC(C)(C)C(=O)O)c4csc(N)n4)[C@H]3SC2)[n+]1C [Example 50, 7-[(Z)-2-(2-aminothiazol-4-yl)-2-(carboxyprop-2-oxyimino)acetamido]-3-{4-amino-1-methyl-6-(N,N-dimethyl)aminopyrimidinium-2-yl}thiomethyl-3-cephem-4-carboxylate] | 1 µg/mL (≈ 1.53 µM) | 8 µg/mL (≈ 12.3 µM) | 0.063 µg/mL (≈ 0.0967 µM) | 0.25 µg/mL (≈ 0.384 µM) | 0.063 µg/mL (≈ 0.0967 µM) | 0.25 µg/mL (≈ 0.384 µM) | 0.13 µg/mL (≈ 0.199 µM) | 0.031 µg/mL (≈ 0.0476 µM) | 0.031 µg/mL (≈ 0.0476 µM) | 0.063 µg/mL (≈ 0.0967 µM) | 2 µg/mL (≈ 3.07 µM) | ≤ 0.008 µg/mL | ≤ 0.008 µg/mL | 4 µg/mL (≈ 6.14 µM) | ≤ 0.008 µg/mL | 0.031 µg/mL (≈ 0.0476 µM) | > 128 µg/mL | 0.13 µg/mL (≈ 0.199 µM) | 2 µg/mL (≈ 3.07 µM) | 128 µg/mL (≈ 196 µM) | MIC [21]: 0.063 µg/mL (≈ 0.0967 µM); MIC [22]: 4 µg/mL (≈ 6.14 µM); MIC [23]: 0.063 µg/mL (≈ 0.0967 µM); MIC [24]: 1 µg/mL (≈ 1.53 µM); MIC [25]: 0.5 µg/mL (≈ 0.767 µM)
CCO/N=C(\C(=O)N[C@@H]1C(=O)N2C(C(=O)[O-])=C(CSc3nc(N)cc(OCC(=O)O)[n+]3C)CS[C@H]12)c1csc(N)n1 [Example 19, 7-[(Z)-2-(2-aminothiazol-4-yl)-2-(ethoxyimino)acetamido]-3-(4-amino-6-carboxymethoxy-1-methylpyrimidinium-2-yl)thiomethyl-3-cephem-4-carboxylate] | 8 µg/mL (≈ 12.8 µM) | 4 µg/mL (≈ 6.4 µM) | 0.063 µg/mL (≈ 0.101 µM) | 0.25 µg/mL (≈ 0.4 µM) | 0.063 µg/mL (≈ 0.101 µM) | 0.13 µg/mL (≈ 0.208 µM) | 0.25 µg/mL (≈ 0.4 µM) | 0.063 µg/mL (≈ 0.101 µM) | 0.031 µg/mL (≈ 0.0496 µM) | 0.031 µg/mL (≈ 0.0496 µM) | 2 µg/mL (≈ 3.2 µM) | ≤ 0.008 µg/mL | ≤ 0.008 µg/mL | 2 µg/mL (≈ 3.2 µM) | ≤ 0.008 µg/mL | 0.063 µg/mL (≈ 0.101 µM) | 64 µg/mL (≈ 102 µM) | 0.25 µg/mL (≈ 0.4 µM) | 32 µg/mL (≈ 51.2 µM) | 128 µg/mL (≈ 205 µM) | MIC [21]: 0.063 µg/mL (≈ 0.101 µM); MIC [22]: 16 µg/mL (≈ 25.6 µM); MIC [23]: 0.063 µg/mL (≈ 0.101 µM); MIC [24]: 16 µg/mL (≈ 25.6 µM); MIC [25]: 1 µg/mL (≈ 1.6 µM)
C[n+]1c(SCC2=C(C(=O)[O-])N3C(=O)[C@@H](NC(=O)/C(=N\OC(C)(C)C(=O)O)c4csc(N)n4)[C@H]3SC2)nc(N)c2ccoc21 [Example 32, 7-[(Z)-2-(2-aminothiazol-4-yl)-2-(carboxyprop-2-oxyimino)acetamido]-3-(4-amino-1-methylfuro[5,6,e]pyrimidinium-2-yl-)thiomethyl-3-cephem-4-carboxylate] | 1 µg/mL (≈ 1.54 µM) | 4 µg/mL (≈ 6.17 µM) | 0.063 µg/mL (≈ 0.0971 µM) | 0.13 µg/mL (≈ 0.2 µM) | 0.063 µg/mL (≈ 0.0971 µM) | 0.25 µg/mL (≈ 0.385 µM) | 0.25 µg/mL (≈ 0.385 µM) | 0.13 µg/mL (≈ 0.2 µM) | 0.031 µg/mL (≈ 0.0478 µM) | 0.016 µg/mL (≈ 0.0247 µM) | 2 µg/mL (≈ 3.08 µM) | 0.016 µg/mL (≈ 0.0247 µM) | ≤ 0.008 µg/mL | 2 µg/mL (≈ 3.08 µM) | ≤ 0.008 µg/mL | 0.13 µg/mL (≈ 0.2 µM) | > 128 µg/mL | 0.25 µg/mL (≈ 0.385 µM) | 4 µg/mL (≈ 6.17 µM) | 128 µg/mL (≈ 197 µM) | MIC [21]: 0.13 µg/mL (≈ 0.2 µM); MIC [22]: 8 µg/mL (≈ 12.3 µM); MIC [23]: 0.13 µg/mL (≈ 0.2 µM); MIC [24]: 2 µg/mL (≈ 3.08 µM); MIC [25]: 2 µg/mL (≈ 3.08 µM)
